The record followed here is US9555039B2, “Piperidine derivatives and compositions for the inhibition of nicotinamide phosphoribosyltransferase (NAMPT)” (Forma TM, LLC., priority 2011, dated 2017).

In test [1] the target is T1, Recombinant His-tagged NAMPT (Homo sapiens, UniProt P43490).
T1 construct: His; host or cells: E. coli
Nature of the test: Biochemical inhibition assay: NAMPT enzymatic reaction, NMN quantified by mass spectrometry. Conditions: 33 nM NAMPT, 1 μM NAM, 100 μM PRPP, 2.5 mM ATP, 30 minutes at room temperature; read-out: Biochem IC50. As to the method: Biochemical Inhibition Assay
NAMPT Protein Purification
Recombinant His-tagged NAMPT was produced in E. coli cells, purified over a Ni column, and further purified over a size-exclusion column by XTAL Biostructures.
The NAMPT Enzymatic Reaction
The NAMPT enzymatic reactions were carried out in Buffer A (50 mM Hepes pH 7.5, 50 mM NaCl, 5 mM MgCl2, and 1 mM THP) in 96-well V-bottom plates. The compound titrations were performed in a separate dilution plate by serially diluting the compounds in DMSO to make a 100× stock. […] The compound and enzyme mix was incubated for 15 minutes at room temperature, then 10 μL of 10× substrate and co-factors in Buffer A were added to the test well to make a final concentration of 1 μM NAM, 100 μM 5-Phospho-D-ribose 1-diphosphate (PRPP), and 2.5 mM Adenosine 5′-triphosphate (ATP). The reaction was allowed to proceed for 30 minutes at room temperature, then was quenched with the addition of 11 μL of a solution of formic acid and L-Cystathionine to make a final concentration of 1% formic acid and 10 μM L-Cystathionine. Background and signal strength was determined by addition (or non-addition) of a serial dilution of NMN to a pre-quenched enzyme and cofactor mix.
A mass spectrometry-based assay was used to measure the Nampt reaction product (NMN) and the internal control (L-Cystathionine). NMN and L-Cystathionine were detected using the services of Biocius Lifesciences with the RapidFire system. In short, the NMN and L-Cystathionine are bound to a graphitic carbon cartridge in 0.1% formic acid, eluted in 30% acetonitrile buffer, and injected into a Sciex 4000 mass spectrometer. The components of the sample were ionized with electrospray ionization and the positive ions were detected. […] The fragments are quantified and the analyzed by the following method.
First the NMN signal is normalized to the L-Cystathionine signal by dividing the NMN signal by the L-Cystathionine signal for each well. The signal from the background wells are averaged and subtracted from the test plates.
Wherein x denotes the average signal of the compound treated wells and y denotes the average signal of the DMSO treated wells.
IC50s are Determined Using Excel and this Formula.
Wherein X denotes the compound concentration 1, Y denotes the compound concentration 2, XX denotes the % inhibition at compound concentration 1 (X), and YY denotes the % inhibition at compound concentration 2 (Y).

A further test has as its system A2780 cells. Nature of the test: In-vitro cell proliferation assay (SRB, 72 hours). The class given is cell-based. Conditions: Homo sapiens, sulforhodamine B (SRB) assay. The protocol:
In-Vitro Cell Proliferation Assay
After overnight incubation at 37° C. and 5% CO2, the compound titrations were performed in a separate dilution plate by serially diluting the compounds in DMSO to make a 1000× stock. The compounds were then further diluted to 10× final concentration in culture media, whereupon 20 μL of each dilution was added to the plated cells with controls (e.g. DMSO and blank) to make a final volume of 200 μL. The final DMSO concentration in each well was 0.1%. The plates were then incubated for 72 hours at 37° C. in a 5% CO2 incubator. The number of viable cells was then assessed using sulforhodamine B (SRB) assay. Cells were fixed at 4° C. for 1 hour with the addition of 50 μL 30% trichloroacetic acid (TCA) to make a final concentration of 6% TCA. The plates were washed four times with H2O and allowed to dry for at least 1 hour, whereupon 100 μL of a 4% SRB in 1% acetic acid solution was added to each well and incubated at room temperature for at least 30 minutes. The plates were then washed three times with 1% acetic acid, dried, and treated with 100 μL of 10 mM Tris-Base solution. The plates were then read in a microplate reader at an absorbance of 570 nm. Background was generated on a separate plate with media only.
Method for Determining % Inhibition
First, the signals from the background plate are averaged, then the background was subtracted from the test plates.
wherein x denotes the average signal of the compound-treated cells and y denotes the average signal of the DMSO-treated cells.
wherein X denotes the compound concentration 1, Y denotes the compound concentration 2, XX denotes the % inhibition at compound concentration 1 (X), and YY denotes the % inhibition at compound concentration 2 (Y).
A general note: Sulforhodamine B stains cellular protein and so reports cell mass.

T1 sequence (P43490 whole entry): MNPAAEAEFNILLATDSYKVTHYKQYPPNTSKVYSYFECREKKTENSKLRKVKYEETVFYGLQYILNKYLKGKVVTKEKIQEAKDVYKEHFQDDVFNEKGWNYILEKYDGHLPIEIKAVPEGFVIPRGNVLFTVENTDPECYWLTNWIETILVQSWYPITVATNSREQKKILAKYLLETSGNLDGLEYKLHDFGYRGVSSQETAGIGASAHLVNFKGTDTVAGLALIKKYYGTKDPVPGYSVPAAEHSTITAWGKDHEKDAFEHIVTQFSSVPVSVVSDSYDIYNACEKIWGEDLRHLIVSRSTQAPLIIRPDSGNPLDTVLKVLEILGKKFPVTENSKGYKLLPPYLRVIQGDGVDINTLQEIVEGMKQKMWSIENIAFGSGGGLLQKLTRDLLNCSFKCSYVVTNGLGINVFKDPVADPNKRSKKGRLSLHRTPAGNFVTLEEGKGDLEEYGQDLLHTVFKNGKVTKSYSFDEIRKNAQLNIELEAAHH

As a reminder, the IC50 is the midpoint of a concentration-inhibition curve. As for `CC(C)c1ccc(C(=O)N2CCC(CCCCNC(=O)c3cc4cnccc4[nH]3)CC2)cn1` [N-[4-(1-{[6-(propan-2-yl)pyridin-3-yl]carbonyl}piperidin-4-yl)butyl]-1H-pyrrolo[3,2-c]pyridine-2-carboxamide], the IC50 in test [1] was determined as 86.7 nM; in the test with A2780 cells it was 13.2 nM.

`O=C(NCCCCC1CCN(C(=O)c2cccc(F)c2)CC1)c1cc2cnccc2[nH]1` [N-(4-{1-[(3-fluorophenyl)carbonyl]piperidin-4-yl}butyl)-1H-pyrrolo[3,2-c]pyridine-2-carboxamide]: the concentration for half-maximal inhibition (IC50) in test [1] stood at 16.4 nM; with A2780 cells, 3.3 nM.

For `Cn1cc(CC(=O)N2CCC(CCCCNC(=O)c3cc4ccncc4s3)CC2)c2ccccc21` [N-(4-{1-[2-(1-methyl-1H-indol-3-yl)acetyl]piperidin-4-yl}butyl)thieno[2,3-c]pyridine-2-carboxamide], the IC50 in test [1] came to 11.6 nM; in the test with A2780 cells it was 24 nM.

Turning to `O=C(NCCCCC1CCN(C(=O)c2cccnc2)CC1)c1cc2cnccc2[nH]1` [N-(4-{1-[(pyridin-3-yl)carbonyl]piperidin-4-yl}butyl)-1H-pyrrolo[3,2-c]pyridine-2-carboxamide], the figures for the IC50 (in test [1]; with A2780 cells) were 98.6 nM and 23.1 nM, respectively.

Turning to `Cc1nc(CC(=O)N2CCC(CCCCNC(=O)c3ccc4nccn4c3)CC2)cs1` [N-(4-{1-[2-(2-methyl-1,3-thiazol-4-yl)acetyl]piperidin-4-yl}butyl)imidazo[1,2-a]pyridine-6-carboxamide], the values for the IC50 (in test [1]; in the test with A2780 cells) were 18.9 nM and 28 nM, respectively.

`Cn1ccnc1C(=O)N1CCC(CCCCNC(=O)c2cc3cnccc3[nH]2)CC1` [N-(4-{1-[(1-methyl-1H-imidazol-2-yl)carbonyl]piperidin-4-yl}butyl)-1H-pyrrolo[3,2-c]pyridine-2-carboxamide]: the IC50 in test [1] worked out at 76.5 nM; in the test with A2780 cells it was 23.6 nM.

As to `O=C(NCCCCC1CCN(C(=O)c2cc3cnccc3[nH]2)CC1)c1ccc2nccn2c1` [N-{4-[1-({1H-pyrrolo[3,2-c]pyridin-2-yl}carbonyl)piperidin-4-yl]butyl}imidazo[1,2-a]pyridine-6-carboxamide], the values for the half-maximal inhibitory concentration (IC50) (in test [1]; with A2780 cells) were 8.6 nM and 13.1 nM, respectively.

Consider `COCc1ccc(C(=O)N2CCC(CCCCNC(=O)c3cc4cnccc4[nH]3)CC2)nc1` [N-[4-(1-{[5-(methoxymethyl)pyridin-2-yl]carbonyl}piperidin-4-yl)butyl]-1H-pyrrolo[3,2-c]pyridine-2-carboxamide], for which the IC50 in test [1] was 31.1 nM; in the test with A2780 cells it was 14.2 nM.

As to `O=C(NCCCCC1CCN(C(=O)c2ccc(F)cn2)CC1)c1ccc2nccn2c1` [N-(4-{1-[(5-fluoropyridin-2-yl)carbonyl]piperidin-4-yl}butyl)imidazo[1,2-a]pyridine-6-carboxamide], the values for the IC50 (in test [1]; in the test on A2780 cells) were 74 nM and 67.9 nM, respectively.

For the compound `O=C(NCCCCCCOc1ccc(Cl)cc1)c1ccc2ncccc2c1` [N-[6-(4-chlorophenoxy)hexyl]quinoline-6-carboxamide], the IC50 in test [1] was determined as 25.9 nM; in the test on A2780 cells it was 9890 nM.

Take `O=C(NCCCCC1CCN(C(=O)c2ccc(F)cc2F)CC1)c1cc2cnccc2[nH]1` [N-(4-{1-[(2,4-difluorophenyl)carbonyl]piperidin-4-yl}butyl)-1H-pyrrolo[3,2-c]pyridine-2-carboxamide]: the results for the IC50 (in test [1]; in the test with A2780 cells) were 39.3 nM and 8.1 nM, respectively.

For the compound `O=C(NCCCCC1CCN(C(=O)c2csc(-c3cccnc3)n2)CC1)c1cc2ccncc2s1` [N-[4-(1-{[2-(pyridin-3-yl)-1,3-thiazol-4-yl]carbonyl}piperidin-4-yl)butyl]thieno[2,3-c]pyridine-2-carboxamide], the IC50 in test [1] is 70.6 nM; with A2780 cells, 85.3 nM.

In the case of `O=C(NCCCCC1CCN(C(=O)c2c(F)cccc2F)CC1)c1cc2ccncc2s1` [N-(4-{1-[(2,6-difluorophenyl)carbonyl]piperidin-4-yl}butyl)thieno[2,3-c]pyridine-2-carboxamide], the values for the IC50 (in test [1]; in the test with A2780 cells) were 4.3 nM and 0.8 nM, respectively.

As for `O=C(NCCCC1CCN(C(=O)c2ccccc2)CC1)c1cc2cnccc2[nH]1` [N-(3-(1-benzoylpiperidin-4-yl)propyl)-1H-pyrrolo[3,2-c]pyridine-2-carboxamide], the IC50 in test [1] worked out at 126 nM; with A2780 cells it was 432 nM.

As to `COc1cccc(C(=O)N2CCC(CCCCNC(=O)c3cc4ccncc4s3)CC2)c1OC` [N-(4-{1-[(2,3-dimethoxyphenyl)carbonyl]piperidin-4-yl}butyl)thieno[2,3-c]pyridine-2-carboxamide], the IC50 came to 16.9 nM in test [1] and 5.6 nM in the test on A2780 cells.

On to `O=C(NCCC1CCN(C(=O)c2ccccc2)CC1)c1cc2cnccc2[nH]1` [N-[2-(1-benzoylpiperidin-4-yl)ethyl]-1H-pyrrolo[3,2-c]pyridine-2-carboxamide], for which the values for the IC50 (in test [1]; in the test with A2780 cells) were 10000 nM and 20000 nM, respectively.

Take `CCOc1cccc(C(=O)N2CCC(CCCCNC(=O)c3ccc4nccn4c3)CC2)c1` [N-(4-{1-[(3-ethoxyphenyl)carbonyl]piperidin-4-yl}butyl)imidazo[1,2-a]pyridine-6-carboxamide]: the results for the IC50 (in test [1]; with A2780 cells) were 10.2 nM and 13.2 nM, respectively.

As to `O=C(NCCCCC1CCN(C(=O)c2ccccc2OC(F)(F)F)CC1)c1cc2ccncc2s1` [N-[4-(1-{[2-(trifluoromethoxy)phenyl]carbonyl}piperidin-4-yl)butyl]thieno[2,3-c]pyridine-2-carboxamide], the IC50 in test [1] was 10.4 nM; with A2780 cells it was 3.1 nM.

Consider `O=C(NCCCOC1CCN(C(=O)c2ccccc2F)CC1)c1cc2cnccc2[nH]1` [N-(3-((1-(2-fluorobenzoyl)piperidin-4-yl)oxy)propyl)-1H-pyrrolo[3,2-c]pyridine-2-carboxamide], for which the figures for the concentration for half-maximal inhibition (IC50) (in test [1]; in the test with A2780 cells) were 35 nM and 177 nM, respectively.

Take `O=C(NCCCCC1CCN(C(=O)c2cnccc2C(F)(F)F)CC1)c1cc2ccncc2s1` [N-[4-(1-{[4-(trifluoromethyl)pyridin-3-yl]carbonyl}piperidin-4-yl)butyl]thieno[2,3-c]pyridine-2-carboxamide]: the concentration for half-maximal inhibition (IC50) in test [1] stood at 9.9 nM; with A2780 cells it was 6.9 nM.

`O=C(NCCCCC1CCN(C(=O)c2cccc(F)c2F)CC1)c1cc2cnccc2[nH]1` [N-(4-{1-[(2,3-difluorophenyl)carbonyl]piperidin-4-yl}butyl)-1H-pyrrolo[3,2-c]pyridine-2-carboxamide]: the IC50 in test [1] came out at 12.1 nM; in the test on A2780 cells it was 3.4 nM.

For the compound `O=C(NCCCCC1CCN(C(=O)c2ccccc2OC(F)(F)F)CC1)c1ccc2nccn2c1` [N-[4-(1-{[2-(trifluoromethoxy)phenyl]carbonyl}piperidin-4-yl)butyl]imidazo[1,2-a]pyridine-6-carboxamide], the IC50 in test [1] worked out at 2.5 nM; with A2780 cells it was 1.9 nM.

With `O=C(NCCCCC1CCN(C(=O)c2ccoc2)CC1)c1cc2ccncc2s1` [N-(4-{1-[(furan-3-yl)carbonyl]piperidin-4-yl}butyl)thieno[2,3-c]pyridine-2-carboxamide], the results for the IC50 (in test [1]; in the test on A2780 cells) were 4 nM and 6 nM, respectively.

Consider `O=C(NCCCCC1CCN(C(=O)c2cc3ccccc3[nH]2)CC1)c1cc2ccncc2s1` [N-(4-{1-[(1H-indol-2-yl)carbonyl]piperidin-4-yl}butyl)thieno[2,3-c]pyridine-2-carboxamide], for which the IC50 is 33.5 nM in test [1] and 100 to 1000 nM in the test on A2780 cells.
